Key:
PC-12 cells = test: Neurite outgrowth in NGF-differentiated PC-12 cells; format: cell-based, rat; settings: 0.5 μM
Description: The ellagitannins and their metabolites tested in the assays were synthesized or purchased from suppliers which included Funakoshi, Sigma, and Chemos. Stock solutions were aliquoted and stored at −20° C.
PC-12 cells (ATCC CRL-1721) were cultured at 37° C., 5% CO2 in poly L-lysine-coated culture flasks in complete culture medium (RPMI 1640+10% heat-inactivated horse serum+5% fetal bovine serum).
Cell differentiation was performed in culture flasks 24 h after plating, in complete medium supplemented with 100 ng/mL NGF (2.5 S NGF, Invitrogen). The NGF-supplemented medium was renewed every third day, and differentiation was induced over an 8-day period.
All compounds to be tested were prepared just before the experiment as a 50 mM stock solution in dimethylsulfoxide (DMSO). The final DMSO concentration was 0.1% in the medium of all experimental groups.
For neurite outgrowth measurements, differentiated cells were washed with phosphate-buffered saline (PBS), collected after detachment and replated at a density of 5,000 cells/well (biocoat imaging 96 well plate) in complete medium supplemented with 100 ng/mL NGF, with or without 10 μM SP600125 (negative control), 1 mM dbcAMP (positive control), or tested compound at 5×10^−7 M. In the undifferentiated control group, no NGF was added after replating.
After 72 h in culture, PC-12 cells were washed with PBS and fixed in 1% paraformaldehyde solution for 20 minutes. After 3 washes with PBS, immunofluorescence labeling was performed with Texas Red Maleimide probe, which reacts with thiol groups of cysteine residues of proteins, permitting the visualization of the entire cell morphology, including neurites.
Immunofluorescence analysis was performed in automated confocal microscopy. Images were acquired with a BD pathway 855 system, under X20 objective with 8×8 field montage. Neurite outgrowth was then measured from acquired images with the neurite module of Metamorph® software. Total and mean outgrowth, total and mean number of processes per cell, and total and percentage of cells with extensive outgrowth (defined as outgrowth longer than 20 μm) were analyzed.

[1] = system: primary dopaminergic tyrosine hydroxylase (TH)-positive neurons; test: Neurite outgrowth in primary dopaminergic TH-positive neurons; format: cell-based, rat; settings: 72 h; compounds 0.1 μM, SP600125 10 μM, dbcAMP 1 mM (FIG. 14)
Description: Primary mesencephalic cultures were prepared from rat E14 embryos. Ventral mesencephalon was carefully dissected and dissociated. Cells were then plated in DMEM F12 medium containing 10% heat inactivated horse serum at the density of 100,000 cells/well (96-well plate), with or without the JNK-specific inhibitor SP600125 (10 μM) (which served as a negative control) or dbcAMP (1 mM) (which served as a positive control), or the compounds tested each at the doses of 0.1 μM.
72 h after plating, the effects on the neurite outgrowth of dopaminergic tyrosine hydroxylase (TH)-positive neurons were measured from images acquired by automated confocal microscopy (X4 objective, montage 4×4) and covering the entire well surface, and quantified using the Neurite outgrowth module of Metamorph® software. Several representative parameters of neurite outgrowth were thus generated: total and mean outgrowth, total and mean number of processes per cell, and total and percentage of cells with extensive outgrowth (defined as outgrowth longer than 20 μm) were analyzed. All experiments were performed in quadruplicate.

Structure (SMILES): O=C1OC[C@H]2OC(O)[C@H](O)[C@@H](O)[C@@H]2OC(=O)c2cc(O)c(O)c(O)c2-c2c(O)c(O)c3oc(=O)c4c(c(O)c(O)c5oc(=O)c2c3c54)-c2c1cc(O)c(O)c2O (mixture of isomers) [punicalin]
- percent of cells showing significant outgrowth (>20 μm), increase vs differentiated cells (PC-12 cells; 72 h (FIG. 8)): 26%
- number of processes (in words) (PC-12 cells; 72 h, differentiated PC-12 cells): induced an increase in the number of processes

Structure (SMILES): Oc1c2ccccc2c2c3c(cccc13)N=N2 [SP600125]
- increase in branching [1]: 60%

Structure (SMILES): CCCC(=O)Nc1ncnc2c1ncn2[C@@H]1O[C@@H]2COP(=O)(O)O[C@H]2[C@H]1OC(=O)CCC [dbcAMP, dibutyryl cyclic AMP]
- increase in branching [1]: 86%
